# Assay results published in patent US20200087374A1, “INTERACTION BETWEEN C-PEPTIDES AND ELASTIN RECEPTOR, A MODEL FOR UNDERSTANDING VASCULAR DISEASE” (Resiliun B.V., priority 2017, published 2020).
# Entries after “also recorded” stand apart in the source; their conditions may differ. Like-named read-outs stand apart in the source and are kept apart here.
# Legend:
# [1] = system: 30 mM glucose-induced vascular dysfunction in rats; settings: cited from earlier work; for normalization/prevention of glucose-induced vascular dysfunction: 30 mM glucose, rats; for potency relative to native C-peptide: vascular dysfunction model
# Human monocytes = assay: Monocyte chemotaxis in 48-well microchemotaxis chamber; format: cell-based; settings: for effect on monocyte chemotaxis induced by C-peptide: cells exposed 30 minutes before assay, C-peptide 0.1-10 nmol/L, antibodies 1:1000; for effect on monocyte chemotaxis induced by C-peptide / effect on monocyte chemotaxis in response to VGVAPG: sugars 1 mmol/L; for induction of monocyte chemotaxis: stimulus in lower wells
# Procedure: Human monocytes are isolated from freshly drawn blood of healthy volunteers using serial Ficoll/Percoll gradient centrifugation, as described elsewhere. Cells are cultured for 16 hours in RPMI-1640 media supplemented with 0.5% human serum to become quiescent after isolation. Purity of the cells is >95% as determined by flow cytometry analysis. Monocyte chemotaxis is assayed in a 48-well microchemotaxis chamber (Neuroprobe, Gaithersburg, Md.) in serum-free media. Wells in the upper and lower chamber are separated by a polyvinylpyrrolidone-free polycarbonate membrane (pore size 5 μm; Costar). Freshly isolated monocytes at a density of 5×10^5/mL are incubated for 2.5 hours with recombinant C-peptide (Sigma), before migrated cells on the bottom face of the filter are stained and counted under the light microscope. Maximal chemotactic activity is measured with 0.1 mmol/L N-formyl-methionyl-leucyl-phenylalanine (f-MLF; Sigma Chemical Co), and checkerboard analysis is used to distinguish chemotaxis from chemokinesis. Inhibition of chemotaxis is tested by competition with VGVAPG, a repetitive peptide sequence found in human and bovine elastin (Sigma Chemical Co), and BA-4, an antielastin-blocking antibody. Controls for BA-4 include mouse immunoglobulin G (IgG; PharMingen, San Diego, Calif.). Exposure of cells to lactose is used to specifically dissociate the 67-kD EBP. Controls for lactose included glucose, fructose, and mannose, none of which affect the 67-kD EBP. In each case, monocytes cells are exposed to the relevant concentrations of SEQ ID NO:41 (VGVAPG) (10-9 to 10-5 mol/L), antibodies (1:1000), or sugars (1 mmol/L) for 30 minutes before the chemotaxis assays are started. […] Monocytes in the upper wells of the assay chamber are exposed to varying concentrations of SEQ ID NO:41 (VGVAPG) for 30 minutes before stimulation by human recombinant C-peptide (0.1 nmol/L-10 nmol/L) in the lower wells. […] C-peptide-derived chemotactic activity is eliminated by competition with […]=SEQ ID NO:41 (VGVAPG), a repetitive peptide found in human elastin that binds to cellular elastin receptors, and decreases in the presence of BA-4, a monoclonal antibody that can block elastin peptide mediated chemotactic activity. Monocyte chemotaxis in response to both SEQ ID NO:41 (VGVAPG) and C-peptide is abolished in the presence of lactose, a galactosugar that specifically dissociates the 67-kD EBP, but it is unaffected by glucose, fructose, or mannose. […] Chemotaxis is also assayed by a double micropore membrane system in modified Boyden chambers. The lower compartment containing 180 micro-l of C-peptide or fragments thereof at various concentrations is separated from the upper compartment containing 200 micro-1 of cell suspension ([…] cells, such as endothelial cells or smooth muscle cells or pericytes or keratinocytes of fibroblasts or leukocytes per ml medium) by a 10 micro-m polycarbonate membrane (Millipore, Bedford, Mass.). The membranes are presoaked in bovine type I collagen (25 micro-g phosphate-buffered saline per ml) (Chemicon International, Temecula, Calif.) for 24 h at room temperature to facilitate the attachment of cells. The chambers are incubated for 18 h at 37° C. in 5% CO2-balanced air. The chambers are then disassembled, and the membrane pairs are stained with hematoxylin. The cell number of a number, such as five, random and nonoverlapping fields under a microscope is counted. For all experiments, medium alone in the bottom chamber may serve as the baseline control. To confirm directed cell migration, the concentration gradient between the upper and lower compartments may be abolished by adding various doses of elastin to the cell suspension. Chemotaxis is assayed as described above. Chemotaxis may also be studied in an ex vivo aortic ring assay measuring endothelial cell migration and proliferation
# elastin receptor = molecular target: T1, elastin receptor (Homo sapiens, UniProt P16278); settings: cited from earlier work
# T1 sequence (P16278 29-546 isoform P16278-2 limits assumed): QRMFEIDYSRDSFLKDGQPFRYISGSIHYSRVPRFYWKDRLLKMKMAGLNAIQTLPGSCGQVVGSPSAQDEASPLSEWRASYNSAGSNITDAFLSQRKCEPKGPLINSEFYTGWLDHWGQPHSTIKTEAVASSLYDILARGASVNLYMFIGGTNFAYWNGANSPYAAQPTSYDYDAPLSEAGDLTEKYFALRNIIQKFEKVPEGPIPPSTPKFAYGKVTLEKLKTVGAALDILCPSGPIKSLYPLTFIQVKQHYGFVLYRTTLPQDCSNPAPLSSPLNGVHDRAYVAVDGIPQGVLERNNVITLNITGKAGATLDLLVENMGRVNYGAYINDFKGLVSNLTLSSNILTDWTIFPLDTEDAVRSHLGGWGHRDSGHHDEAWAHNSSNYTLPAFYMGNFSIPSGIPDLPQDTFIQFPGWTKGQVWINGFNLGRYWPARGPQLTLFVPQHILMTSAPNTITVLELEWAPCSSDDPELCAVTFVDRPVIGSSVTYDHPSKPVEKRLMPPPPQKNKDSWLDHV
# [2] = system: arteriosclerotic lesion development; settings: mice; cited from earlier work
# [3] = system: cell membrane-bound C-peptide; settings: cited from earlier work
# [4] = system: human renal tubular cells; settings: cited from earlier work
# [5] = system: MAP kinase signalling pathways; settings: cited from earlier work
# Na(+),K(+)-ATPase = settings: cited from earlier work
# CD4+ immune cells = assay: Boyden chamber migration of CD4+ immune cells; format: cell-based; settings: for reduction/inhibition of C-peptide specific biological activity: preliminary
# Procedure: Human monocytes are isolated from freshly drawn blood of healthy volunteers using serial Ficoll/Percoll gradient centrifugation, as described elsewhere. Cells are cultured for 16 hours in RPMI-1640 media supplemented with 0.5% human serum to become quiescent after isolation. Purity of the cells is >95% as determined by flow cytometry analysis. Monocyte chemotaxis is assayed in a 48-well microchemotaxis chamber (Neuroprobe, Gaithersburg, Md.) in serum-free media. Wells in the upper and lower chamber are separated by a polyvinylpyrrolidone-free polycarbonate membrane (pore size 5 μm; Costar). Freshly isolated monocytes at a density of 5×10^5/mL are incubated for 2.5 hours with recombinant C-peptide (Sigma), before migrated cells on the bottom face of the filter are stained and counted under the light microscope. Maximal chemotactic activity is measured with 0.1 mmol/L N-formyl-methionyl-leucyl-phenylalanine (f-MLF; Sigma Chemical Co), and checkerboard analysis is used to distinguish chemotaxis from chemokinesis. […] Controls for BA-4 include mouse immunoglobulin G (IgG; PharMingen, San Diego, Calif.). Exposure of cells to lactose is used to specifically dissociate the 67-kD EBP. Controls for lactose included glucose, fructose, and mannose, none of which affect the 67-kD EBP. In each case, monocytes cells are exposed to the relevant concentrations of SEQ ID NO:41 (VGVAPG) (10-9 to 10-5 mol/L), antibodies (1:1000), or sugars (1 mmol/L) for 30 minutes before the chemotaxis assays are started. […] Chemotaxis is also assayed by a double micropore membrane system in modified Boyden chambers. […] The membranes are presoaked in bovine type I collagen (25 micro-g phosphate-buffered saline per ml) (Chemicon International, Temecula, Calif.) for 24 h at room temperature to facilitate the attachment of cells. The chambers are incubated for 18 h at 37° C. in 5% CO2-balanced air. The chambers are then disassembled, and the membrane pairs are stained with hematoxylin. The cell number of a number, such as five, random and nonoverlapping fields under a microscope is counted. For all experiments, medium alone in the bottom chamber may serve as the baseline control. To confirm directed cell migration, the concentration gradient between the upper and lower compartments may be abolished by adding various doses of elastin to the cell suspension. Chemotaxis is assayed as described above.
# [6] = in vivo; cited from earlier work
# Na^+K^+ATPase = settings: rat renal tubule cells; cited from earlier work
molecule,measurement,setting,value
VGQVELGGGPGAGSLQPL [SEQ ID NO:175],normalization/prevention of glucose-induced vascular dysfunction,[1],significant normalization
DLQVGQVELGGGPGAGSLQPLALEGSLQ [SEQ ID NO:10],normalization/prevention of glucose-induced vascular dysfunction,[1],significant normalization
GGGPGAG [SEQ ID NO:8],normalization/prevention of glucose-induced vascular dysfunction,[1],normalize glucose-induced vascular dysfunction
VGVAPG [SEQ ID NO:41],concentration of maximal chemotactic activity,Human monocytes,0.1 mmol/L
same,effect on monocyte chemotaxis induced by C-peptide,Human monocytes,eliminates monocyte chemotaxis induced by C-peptide
same,effect of preincubation on chemotactic response to f-MLF,Human monocytes; preincubation of monocytic cells,does not alter the chemotactic response to f-MLF
same,chemotactic potency compared with f-MLF,Human monocytes; same concentration of f-MLF,considerably more potent than the same concentration of f-MLF
same,induction of monocyte chemotaxis,Human monocytes,induces chemotaxis in a concentration-dependent manner
same,binding to elastin receptor,elastin receptor,binding has been demonstrated
same,arteriosclerotic lesion development / atherogenicity,[2],promote experimental arteriosclerotic lesion development in mice
EGSLQ [SEQ ID NO:6],displacement of cell membrane-bound C-peptide,[3],displaces cell membrane-bound C-peptide
same,intracellular Ca2+,[4],increases intracellular Ca(2+)
same,intracellular Ca2+,[4]; listed as SEQ NO:6,may induce intracellular Ca2+ increases
same,MAP kinase signalling pathways,[5],stimulates MAP kinase signalling pathways
same,"Na(+),K(+)-ATPase","Na(+),K(+)-ATPase",stimulates
LGGGPGAGSLQPLALEGSLQ [SEQ ID NO:14],normalization/prevention of glucose-induced vascular dysfunction,[1],significant normalization
"EAENPQAGAVELGGGLGGLQALALEGPPQ [pig C-peptide, pig C-peptide, midportion LGGGLG]",normalization/prevention of glucose-induced vascular dysfunction,[1],inactive
"EVEDPQVPQLELGGGPEAGDLQTLALEVARQ [Rat C-peptide, rat C-peptide comprising hexapeptide LGGGPE]",normalization/prevention of glucose-induced vascular dysfunction,[1],active
EAEDLQVGQVELGGGPGAGSLQPLALEGSLQ [C-peptide],increase of migration of CD4+ immune cells,"CD4+ immune cells; C-peptide at 10 nM, 1% serum medium, in vitro",100%
same,checkerboard analysis: chemotaxis versus chemokinesis,Human monocytes,stimulates chemotaxis without a chemokinetic effect
same,induction of monocyte chemotaxis,Human monocytes,stimulates a concentration-dependent increase in monocyte migration
same,arteriosclerotic lesion development / atherogenicity,[2],promote experimental arteriosclerotic lesion development in mice; also recorded: atherogenic in mice
same,half-life,[6],30 min
same,plasma half-life,[6],~30 min
QLSGELALPQLSGAGPGGGLEVQGVQLDEAE (retro C-Peptide),normalization/prevention of glucose-induced vascular dysfunction,[1],biologically active
same,potency relative to native C-peptide,[1],equipotent to native C-peptide
OC[C@H]1O[C@@H](O[C@H]2[C@H](O)[C@@H](O)C(O)O[C@@H]2CO)[C@H](O)[C@@H](O)[C@H]1O (stereo partly shown) [lactose],reduction/inhibition of C-peptide specific biological activity,CD4+ immune cells; in vitro,reduction of C-peptide specific biological activity
same,effect on monocyte chemotaxis induced by C-peptide,Human monocytes,abolished
same,effect on monocyte chemotaxis in response to VGVAPG,Human monocytes,abolished
same,antagonism of elastin peptide (ERC-ligand) binding to elastin receptor/EBP,elastin receptor,inhibited; also recorded: antagonized
same,antagonism of elastin peptide (ERC-ligand) binding to elastin receptor/EBP,elastin receptor; listed as Lactose,antagonise elastin peptide binding
O=C(CO)[C@@H](O)[C@H](O)[C@H](O)CO [fructose],effect on monocyte chemotaxis induced by C-peptide,Human monocytes,unaffected
same,effect on monocyte chemotaxis in response to VGVAPG,Human monocytes,unaffected
VVGSPSAQDEASPL [V14 peptide],C-peptide-induced CD4-migration antagonized and diminished,"CD4+ immune cells; V14-peptide at 1.3 microM, C-peptide at 10 nM",> 50%
same,reduction/inhibition of C-peptide specific biological activity,CD4+ immune cells; in vitro,inhibition of bioactivity of C-peptide
same,antagonism of elastin peptide (ERC-ligand) binding to elastin receptor/EBP,elastin receptor,antagonise elastin peptide binding; also recorded: inhibited; also recorded: antagonized
EAEDLQVGQVELGGGPGAGSLQPL (EAEDLQVGQVELGGGPGAGSLQPLAL) [SEQ ID NO:17],normalization/prevention of glucose-induced vascular dysfunction,[1],significant normalization
GQVELGGGPGAGSLQPLALEGSLQ [SEQ ID NO:13],normalization/prevention of glucose-induced vascular dysfunction,[1],significant normalization
ELGGGPGAG [SEQ ID NO:9],Na+K+ATPase activity,Na^+K^+ATPase,stimulate
D-EAEDLQVGQVELGGGPGAGSLQPLALEGSLQ (all D-amino acids) [enantio C-peptide],normalization/prevention of glucose-induced vascular dysfunction,[1],biologically active
same,potency relative to native C-peptide,[1],equipotent to native C-peptide
DLQVGQVELGGGPGAGSLQPL [SEQ ID NO:20],normalization/prevention of glucose-induced vascular dysfunction,[1],significant normalization
ELGGGPGAGSLQPL [SEQ ID NO:176],normalization/prevention of glucose-induced vascular dysfunction,[1],significant normalization
